From ChEMBL document CHEMBL1201862, “PubChem BioAssay data set” (2004)
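Where inhibition never reached the appropriate level, the endpoint shown equals the highest concentration tested. Otherwise, values were interpolated linearly from a five-concentration, 48-hour dose response in 96-well plates. The concentration for 50% growth inhibition is given as GI50.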 Calls of active or inactive are those of the source. No stated cut-off is given here; in the data, active = GI50 up to about 1.1 µM and inactive = higher.

Experiments:
Assay in all cases: DTP human tumour cell line panel, 48 h
786-0 = test system: 786-0
A549 = test system: A549
ACHN = test system: ACHN
CAKI-1 = test system: CAKI-1
CCRF-CEM = test system: CCRF-CEM
COLO 205 = test system: COLO 205
DLD-1 = test system: DLD-1
DMS-114 = test system: DMS-114
DMS-273 = test system: DMS-273
EKVX = test system: EKVX
HCC 2998 = test system: HCC 2998
HCT-116 = test system: HCT-116
HCT-15 = test system: HCT-15
HL-60 = test system: HL-60
HOP-18 = test system: HOP-18
HOP-62 = test system: HOP-62
HOP-92 = test system: HOP-92
HT-29 = test system: HT-29
IGROV-1 = test system: IGROV-1
K562 = test system: K562
KM-20L2 = test system: KM-20L2
KM12 = test system: KM12
LOX IMVI = test system: LOX IMVI
LXFL 529 = test system: LXFL 529
M14 = test system: M14
M19-MEL = test system: M19-MEL
MOLT-4 = test system: MOLT-4
Malme-3M = test system: Malme-3M
NCI-H226 = test system: NCI-H226
NCI-H23 = test system: NCI-H23
NCI-H460 = test system: NCI-H460
NCI-H522 = test system: NCI-H522
OVCAR-3 = test system: OVCAR-3
OVCAR-4 = test system: OVCAR-4
OVCAR-8 = test system: OVCAR-8
RPMI-8226 = test system: RPMI-8226
RXF 393 = test system: RXF 393
SF-268 = test system: SF-268
SF-295 = test system: SF-295
SF-539 = test system: SF-539
SK-MEL-28 = test system: SK-MEL-28
SK-MEL-2 = test system: SK-MEL-2
SK-MEL-5 = test system: SK-MEL-5
SK-OV-3 = test system: SK-OV-3
SN12C = test system: SN12C
SNB-19 = test system: SNB-19
SNB-75 = test system: SNB-75
SNB-78 = test system: SNB-78
SW-620 = test system: SW-620
TK-10 = test system: TK-10
U-251 = test system: U-251
UACC-257 = test system: UACC-257
UACC-62 = test system: UACC-62
UO-31 = test system: UO-31
XF498 = test system: XF498
OVCAR-5 = test system: OVCAR-5
SR = test system: SR

Measured: GI50

COc1cc2cc3c4c(cc(OC)c(OC)c4c2cc1OC)CCN3
inactive: 786-0 48.4 µM | A549 > 100 µM | ACHN 32.5 µM | CAKI-1 67.1 µM | CCRF-CEM 26.5 µM | COLO 205 22.6 µM | DLD-1 26.1 µM | DMS-114 36 µM | DMS-273 33.7 µM | EKVX 6.53 µM | HCC 2998 72.8 µM | HCT-116 36.6 µM | HL-60 18.2 µM | HOP-18 > 100 µM | HOP-62 > 100 µM | HOP-92 20.8 µM | HT-29 32.9 µM | IGROV-1 > 100 µM | K562 27.9 µM | KM-20L2 27.5 µM | KM12 31.6 µM | LOX IMVI 28.6 µM | LXFL 529 58.6 µM | M14 32.9 µM | M19-MEL 12.9 µM | MOLT-4 35.3 µM | Malme-3M 44.5 µM | NCI-H226 > 100 µM | NCI-H23 92 µM | NCI-H460 21.5 µM | NCI-H522 31.3 µM | OVCAR-3 27.2 µM | OVCAR-4 33.7 µM | OVCAR-8 76.4 µM | RPMI-8226 20 µM | RXF 393 25.1 µM | SF-268 34 µM | SF-295 37 µM | SF-539 14.6 µM | SK-MEL-28 69.8 µM | SK-MEL-2 22.1 µM | SK-MEL-5 23.8 µM | SK-OV-3 > 100 µM | SN12C 46.7 µM | SNB-19 > 100 µM | SNB-75 44 µM | SNB-78 > 100 µM | SW-620 21.1 µM | TK-10 74.5 µM | U-251 > 100 µM | UACC-257 58.6 µM | UACC-62 5.61 µM | UO-31 69.2 µM | XF498 > 100 µM
32.9 µM: HCT-15

COc1ccc(C(=O)C(c2ccc(OC)cc2)C2OC(=O)C(Cl)=C2Cl)cc1 (stereo not drawn)
inactive: 786-0 > 100 µM | A549 > 100 µM | ACHN > 100 µM | CAKI-1 > 100 µM | CCRF-CEM > 100 µM | DLD-1 > 100 µM | DMS-114 > 100 µM | EKVX > 100 µM | HCC 2998 > 100 µM | HCT-116 > 100 µM | HL-60 > 100 µM | HOP-18 > 100 µM | HOP-62 > 100 µM | HOP-92 > 100 µM | HT-29 > 100 µM | IGROV-1 > 100 µM | K562 > 100 µM | KM12 > 100 µM | LOX IMVI > 100 µM | LXFL 529 > 100 µM | M14 > 100 µM | M19-MEL > 100 µM | MOLT-4 > 100 µM | Malme-3M > 100 µM | NCI-H226 > 100 µM | NCI-H23 > 100 µM | NCI-H460 > 100 µM | NCI-H522 > 100 µM | OVCAR-3 > 100 µM | OVCAR-4 > 100 µM | OVCAR-5 > 100 µM | OVCAR-8 84.1 µM | RPMI-8226 > 100 µM | RXF 393 > 100 µM | SF-268 > 100 µM | SF-295 > 100 µM | SF-539 > 100 µM | SK-MEL-28 > 100 µM | SK-MEL-2 > 100 µM | SK-MEL-5 > 100 µM | SK-OV-3 > 100 µM | SN12C > 100 µM | SNB-19 > 100 µM | SNB-78 > 100 µM | SR > 100 µM | SW-620 > 100 µM | TK-10 > 100 µM | U-251 > 100 µM | UACC-257 > 100 µM | UACC-62 > 100 µM | UO-31 > 100 µM | XF498 > 100 µM
> 100 µM: HCT-15
